Test results published in patent US11453671B2, “Pyrazolopyrimidine inhibitors of JAK kinases and uses thereof” (Genentech, Inc., priority 2020, dated 2022).
pIC50: −log10 of the molar value. Read-outs that look alike come from different tables or passages of the source.

What was measured:
[1] = test system: JAK1: IL-13-stimulated STAT6 phosphorylation in BEAS-2B cells; assay: P-STAT6 BEAS-2B+IL-13 Cell Assay; assay type: cell-based, human; conditions: IL-13 stimulation, read-out: Cellular JAK1 PSTAT6 BEAS2B + IL13 IC50
Procedure, shortened: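 BEAS-2B cells in BEGM preincubated 1 h at 37 °C with 10-point, 1:2 compound dilutions, then stimulated 15 min with IL-13 (250 ng/mL stock). Lysate pSTAT6 (Tyr641) captured on total-STAT6 antibody and read by MSD electrochemiluminescence; IC50 from four-parameter logistic fit.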

[2] = Mouse lung tissue binding (equilibrium dialysis, RED); assay type: in vitro ADME; conditions: for Mouse LTB %: mouse lung tissue binding, % bound (Table 3)
Method: Mouse lung tissue binding. A high bound fraction or percentage of JAK1/JAK2 inhibitors to lung tissue may be undesirable since it can reduce the amount of free drug available to inhibit JAK1 or JAK2.
(a) Tissue binding experiments were performed in triplicate (n=3) using a Single-Use RED Plate by following the standard protocol. Initially, individual drugs were spiked to tissue homogenates (pH 7.4) to achieve a final concentration of 1 μM, and then 300 μL of drug-tissue homogenate mixtures were transferred to the donor wells of the RED plate which was pre-loaded with 500 μL phosphate buffer saline (133 mM) on the receiver wells. The RED plate was sealed with a gas permeable membrane and placed in a shaking incubator (450 rpm, VWR Symphony™) for 6 hr at 37° C. with 5% CO2. At the end of incubation, aliquots of 30 μL samples were taken out of the RED device and matrix equalized with an equal volume of tissue homogenates or buffer, and resulting samples were then immediately quenched with ice cold acetonitrile (sample:acetonitrile 1:4) containing either propranolol or labetalol as an internal standard. After shaking for 15 min at 500 rpm on a Thermo Scientific Compact Digital MicroPlate Shaker, all samples were then subjected to centrifugation at 3700 rpm for 15 min (Beckman Coulter Allegra X 12R) to remove plasma protein. Subsequently, supernatants were collected and then diluted with an equal volume of water prior to LC-MS/MS analysis.
(b) In an alternate procedure, the extent of lung tissue binding of test compound to mouse lung homogenate may also be determined by equilibrium dialysis using Pierce RED (rapid equilibrium dialysis) devices (Fisher Scientific 89811 & 89809). A 10 mM solution of compound in DMSO was prepared and diluted to 1 mM with DMSO. An aliquot of this 1 mM (4 μL) was added into lung homogenate (dilution factor of 1:9, lung tissue:potassium phosphate buffer (0.05 M, pH 7.4)) to give a final compound incubation concentration of 5 μM with solvent accounting for 0.5% (v/v) of the final incubation volume.
For each assay, the percentage lung tissue bound was determined in triplicate. Lung homogenate (200 μL) was loaded into one side of a RED device insert, in triplicate, and 350 μL of potassium phosphate buffer was loaded into the other side. The RED devices were sealed and incubated for 4 hours at ca. 37° C. on an orbital shaker (˜150 rpm).
Following incubation, an aliquot of lung homogenate (8 μL) and an aliquot of dialysate (72 μL) were matrix matched (lung homogenate with 72 μL phosphate buffer, dialysate with 8 μL lung homogenate) ahead of analysis. Protein was precipitated from the samples with the addition of 160 μL of acetonitrile containing internal standard. The same matrix matching and protein precipitation procedure was performed on lung homogenate aliquots sampled at the start of the experiment (t=0 min samples), for the assessment of the mass balance. The quenched samples were centrifuged (4000 rpm, 30 min, 4° C.) and the resultant supernatant diluted with water (3:1 (v/v), supernatant: water) and the samples analysed for parent compound by liquid chromatography mass spectrometry assay.
The unbound fraction (fu) in lung homogenate was determined from the ratio of the dialysate to homogenate peak area, corrected to take into account the lung homogenate dilution (D) to enable an estimate of whole lung tissue binding using the following equations: Undiluted fu=(1/D)/[((1/Apparent fu)−1)+(1/D)] Corrected fraction bound (%)=(1-undiluted fu)*100

[3] = Cell cytotoxicity assay A549 (CellTiter-Glo, 72 hours); assay type: cell-based; conditions: human, A549 cells, read-out: Cytotox A549 EC50
Method: A549 (ATCC® CCL-185™), Jurkat clone E6-1 (ATCC® TIB-152™) and HEK-293T (ATCC® CRL-1573™) cells maintained at a sub-confluent density in T175 flasks were used. Cells in exponential growth phase were plated (450 cells in 45 μL of medium) in Greiner 384-well black/clear tissue culture treated plates (Greiner Catalog No. 781091). After dispensing cells, plates were allowed to equilibrate at room temperature for 30 minutes, after which time the cell plates were placed overnight in a 37° C. CO2 and humidity-controlled incubator. The following day, cells were treated with test agent diluted in 100% DMSO (0.5% final DMSO concentration on cells) with a 10-point titration and a top concentration of 50 μM. Cells and compounds were then incubated for 72 hours in a 37° C. CO2 and humidity-controlled incubator, after which time cell viability was measured by adding CellTiter-Glo® (Promega G7572) reagent to all wells. Plates were incubated at room temperature for 20 minutes and then the well luminescence was read on an EnVision plate reader (Perkin Elmer Life Sciences).

[4] = Table 3, 72 hours, top concentration of 50 μM

CC(CO)S(=O)(=O)c1ccc(OC(F)F)c(-c2nn(C)cc2NC(=O)c2cnn3cccnc23)c1 (single isomer, unassigned) [Example 23, N-[3-[2-(difluoromethoxy)-5-(2-hydroxy-1-methyl-ethyl)sulfonyl-phenyl]-1-methyl-pyrazol-4-yl]pyrazolo[1,5-a]pyrimidine-3-carboxamide]
pIC50 [1]: 7.85
Mouse LTB % [2]: 82.1%
EC50 at 72 h [3, 4]: 28000 nM

CC(CO)S(=O)(=O)c1ccc(OC(F)F)c(-c2nn(C)cc2NC(=O)c2cnn3cccnc23)c1 (single isomer, unassigned) [Example 24, N-[3-[2-(difluoromethoxy)-5-(2-hydroxy-1-methyl-ethyl)sulfonyl-phenyl]-1-methyl-pyrazol-4-yl]pyrazolo[1,5-a]pyrimidine-3-carboxamide]
pIC50 [1]: 7.52
Mouse LTB % [2]: 81.7%

Cn1cc(NC(=O)c2cnn3cccnc23)c(-c2cc(S(=O)(=O)C3CCCNC3)ccc2OC(F)F)n1 (single isomer, unassigned) [Example 37, N-[3-[2-(difluoromethoxy)-5-(3-piperidylsulfonyl)phenyl]-1-methyl-pyrazol-4-yl]pyrazolo[1,5-a]pyrimidine-3-carboxamide]
pIC50 ([1]; Homo sapiens, BEAS-2B): 7.34
Mouse LTB % [2]: 90.1%
EC50 at 72 h [3, 4]: ≥ 50000 nM

C[C@H](O)CS(=O)(=O)c1ccc(OC(F)F)c(-c2nn(C)cc2NC(=O)c2cnn3cccnc23)c1 (stereo in doubt) [Example 15, N-[3-[2-(difluoromethoxy)-5-[rac-(2S)-2-hydroxypropyl]sulfonyl-phenyl]-1-methyl-pyrazol-4-yl]pyrazolo[1,5-a]pyrimidine-3-carboxamide]
pIC50 ([1]; Homo sapiens, BEAS-2B): 7.70
Mouse LTB % [2]: 85.7%
EC50 at 72 h [3, 4]: 25000 nM

C[C@@H](O)CS(=O)(=O)c1ccc(OC(F)F)c(-c2nn(C)cc2NC(=O)c2cnn3cccnc23)c1 (stereo in doubt) [Example 25, N-[3-[2-(difluoromethoxy)-5-[rac-(2R)-2-hydroxypropyl]sulfonyl-phenyl]-1-methyl-pyrazol-4-yl]pyrazolo[1,5-a]pyrimidine-3-carboxamide]
pIC50 ([1]; Homo sapiens, BEAS-2B): 7.70
Mouse LTB % [2]: 85%
EC50 at 72 h [3, 4]: ≥ 50000 nM

CN1CCCC1CCn1cc(S(=O)(=O)c2ccc(OC(F)F)c(-c3nn(C)cc3NC(=O)c3cnn4cccnc34)c2)cn1 (stereo in doubt) [Example 56, N-[3-[2-(difluoromethoxy)-5-[1-[2-[(2R)-1-methylpyrrolidin-2-yl]ethyl]pyrazol-4-yl]sulfonyl-phenyl]-1-methyl-pyrazol-4-yl]pyrazolo[1,5-a]pyrimidine-3-carboxamide]
pIC50 ([1]; Homo sapiens, BEAS-2B): 7.25
Mouse LTB % [2]: 91.4%
EC50 at 72 h [3, 4]: ≥ 50000 nM

Cn1cc(NC(=O)c2cnn3cccnc23)c(-c2cc(S(=O)(=O)C3CCC3)ccc2OC(F)F)n1 [Example 2, N-[3-[5-cyclobutylsulfonyl-2-(difluoromethoxy)phenyl]-1-methyl-pyrazol-4-yl]pyrazolo[1,5-a]pyrimidine-3-carboxamide]
pIC50 ([1]; Homo sapiens, BEAS-2B): 7.82
Mouse LTB % [2]: 88.1%
EC50 at 72 h [3, 4]: 25500 nM

Cn1cc(NC(=O)c2cnn3cccnc23)c(-c2cc(S(=O)(=O)CCO)ccc2OC(F)F)n1 [Example 5, N-[3-[2-(difluoromethoxy)-5-(2-hydroxyethylsulfonyl)phenyl]-1-methyl-pyrazol-4-yl]pyrazolo[1,5-a]pyrimidine-3-carboxamide]
pIC50 ([1]; Homo sapiens, BEAS-2B): 7.46
Mouse LTB % [2]: 80.1%
EC50 at 72 h [3, 4]: 45500 nM

CN(C)CCS(=O)(=O)c1ccc(OC(F)F)c(-c2nn(C)cc2NC(=O)c2cnn3cccnc23)c1 [Example 7, N-[3-[2-(difluoromethoxy)-5-[2-(dimethylamino)ethylsulfonyl]phenyl]-1-methyl-pyrazol-4-yl]pyrazolo[1,5-a]pyrimidine-3-carboxamide]
pIC50 ([1]; Homo sapiens, BEAS-2B): 7.49
Mouse LTB % [2]: 78.8%
EC50 at 72 h [3, 4]: 4100 nM

COc1cccc(S(=O)(=O)c2ccc(OC(F)F)c(-c3nn(C)cc3NC(=O)c3cnn4cccnc34)c2)c1 [Example 12, N-[3-[2-(difluoromethoxy)-5-(3-methoxyphenyl)sulfonyl-phenyl]-1-methyl-pyrazol-4-yl]pyrazolo[1,5-a]pyrimidine-3-carboxamide]
pIC50 ([1]; Homo sapiens, BEAS-2B): 7.74
Mouse LTB % [2]: 97.1%
EC50 at 72 h [3, 4]: ≥ 50000 nM

Cn1cc(NC(=O)c2cnn3cccnc23)c(-c2cc(S(=O)(=O)C3COC3)ccc2OC(F)F)n1 [Example 13, N-[3-[2-(difluoromethoxy)-5-(oxetan-3-ylsulfonyl)phenyl]-1-methyl-pyrazol-4-yl]pyrazolo[1,5-a]pyrimidine-3-carboxamide]
pIC50 ([1]; Homo sapiens, BEAS-2B): 7.48
Lung tissue binding, % ([2]; Table 5, sulfone-sulfide analog pairs): 85.8%
Mouse LTB % [2]: 85%
EC50 at 72 h [3, 4]: 44000 nM

COCCS(=O)(=O)c1ccc(OC(F)F)c(-c2nn(C)cc2NC(=O)c2cnn3cccnc23)c1 [Example 14, N-[3-[2-(difluoromethoxy)-5-(2-methoxyethylsulfonyl)phenyl]-1-methyl-pyrazol-4-yl]pyrazolo[1,5-a]pyrimidine-3-carboxamide]
pIC50 ([1]; Homo sapiens, BEAS-2B): 7.64
Mouse LTB % [2]: 80.1%
EC50 at 72 h [3, 4]: ≥ 50000 nM

Cn1cc(NC(=O)c2cnn3cccnc23)c(-c2cc(S(=O)(=O)c3ccncc3)ccc2OC(F)F)n1 [Example 16, N-[3-[2-(difluoromethoxy)-5-(4-pyridylsulfonyl)phenyl]-1-methyl-pyrazol-4-yl]pyrazolo[1,5-a]pyrimidine-3-carboxamide]
pIC50 ([1]; Homo sapiens, BEAS-2B): 7.82
Mouse LTB % [2]: 87.3%
EC50 at 72 h [3, 4]: 7400 nM

Cn1cc(NC(=O)c2cnn3cccnc23)c(-c2cc(S(C)(=O)=O)ccc2OC(F)F)n1 [Example 17, N-[3-[2-(difluoromethoxy)-5-methylsulfonyl-phenyl]-1-methyl-pyrazol-4-yl]pyrazolo[1,5-a]pyrimidine-3-carboxamide]
pIC50 ([1]; Homo sapiens, BEAS-2B): 7.85
Mouse LTB % [2]: 85.8%
EC50 at 72 h [3, 4]: 8700 nM
EC50 at 72 h ([3]; Table 4, methyl-desmethyl analog pairs): 8700 nM

Cn1cc(NC(=O)c2cnn3cccnc23)c(-c2cc(S(=O)(=O)N3CCC3)ccc2OC(F)F)n1 [Example 21, N-[3-[5-(azetidin-1-ylsulfonyl)-2-(difluoromethoxy)phenyl]-1-methyl-pyrazol-4-yl]pyrazolo[1,5-a]pyrimidine-3-carboxamide]
pIC50 ([1]; Homo sapiens, BEAS-2B): 7.85
Mouse LTB % [2]: 83%
EC50 at 72 h [3, 4]: 7500 nM

C[C@H](Cn1cc(S(=O)(=O)c2ccc(OC(F)F)c(-c3nn(C)cc3NC(=O)c3cnn4cccnc34)c2)cn1)N(C)C [Example 59, N-[3-[2-(difluoromethoxy)-5-[1-[(2R)-2-(dimethylamino)propyl]pyrazol-4-yl]sulfonyl-phenyl]-1-methyl-pyrazol-4-yl]pyrazolo[1,5-a]pyrimidine-3-carboxamide]
pIC50 ([1]; Homo sapiens, BEAS-2B): 7.49
EC50 at 72 h [3, 4]: 43000 nM
